“And” between values parts separate entries of the source, which are not always exact repeats. Identical values can stand only once. Some results are limits rather than exact numbers.

In one data set the test system is S. aureus. The data set can be described thus: Checkerboard Titration (FIC index), pH<4. The conditions noted are these: for FIC of the single component (FIC-NAC, FIC-VC): S. aureus, MIC in combination / MIC alone. In kind it is cell-based. How it is done:
(§1) The method used was a NCCLS micro-dilution procedure. […] The following concentrations were tested (for S. aureus see FIG. 9 and for P. aeruginosa see FIG. 7 for combinations at a pH<4): [table] Fraction Inhibitory Concentration (FIC) is defined as the MIC of the compound in combination divided by the MIC of the compound alone. If the FIC index is ≦0.5, the combination is interpreted to be synergistic; <1 but >0.5-as partially synergistic; =1 as additive; >1 but <4 as indifferent; and ≧4 as antagonistic.

For data set [1] the following is noted: in vivo; cited from earlier work.
The nature of another data set: Osmolarity of solutions. Type of data set: physicochemical. The settings on record: 4 wt % (w/v) of each component in solution. From the text:
Formulation and production of disinfectant compositions of the present disclosure are generally straightforward. […] The disinfectant solution may then be sterilized using conventional means, such as filtration and/or ultrafiltration, and other means. […] The solutions are preferably formulated using USP materials.

Another data set has as its system P. aeruginosa. The data set can be described thus: Checkerboard Titration (FIC index). Type of data set: cell-based. The conditions noted are these: for FIC of the single component (FIC-NAC, FIC-VC): P. aeruginosa, MIC in combination / MIC alone. How it is done:
as §1

In data set [2] the test system is blood coagulation (clotting). The data set can be described thus: Prothrombin Time (PT) Assay, INR. Type of data set: biochemical. The settings on record: single agent, within the tested range. How it is done: Experiments were conducted to assess the anticoagulant capacities of NAC, Vitamin C and combinations of NAC and Vitamin C via a Prothrombin Time (PT) Assay. A PT assay (TM-4339-063) was conducted using a Coagulation Analyzer to obtain PT instead of manually recording the PT. […] INR (International Normalized Ratio) is a system established by the World Health Organization (WHO) and the International Committee on Thrombosis and Hemostasis for reporting the results of blood coagulation (clotting) tests. INR is calculated as: INR=([…] sample/PTnormal control)^ISI ISI (International Sensitivity Index) indicates the sensitivity of individual thromboplastin. […] All the PTs greater than 3× the […] 1 (normal control) were replaced with 31 seconds.

For data set [3] the following is noted: cited from earlier work.
For data set [4], the system named is Staphylococcus aureus (organism # 25923). The data set can be described thus: pH experiments: MBC (minimum bactericidal concentration). Type of data set: cell-based. The settings on record: S. aureus. How it is done:
(§2) In order to determine MIC and MBC (minimum bactericidal concentration) a National Committee on Clinical Laboratory Standards (NCCLS) micro-dilution procedure was followed. […] In the current protocol 100 μL of MHB was mixed with 90 μL of formulation and 10 μL of log 8 organism or the highest achievable concentration. The concentration of the formulation was adjusted to obtain the required concentration in the final solution. The mixture was incubated at 37 degree C. for 16-24 hrs. After 16-24 hours the absorbance value was read at 600 nm. The obtained data was corrected by subtracting the appropriate blanks. Finally, the wells having an absorbance≧0.1 were marked + and <0.1 were marked −. The + symbol indicated growth while − symbol indicates no growth. […] Staphylococcus aureus (organism # 25923) was obtained from ATCC. […] N-acetyl cysteine (NAC) was used (Acros, Catalogue # 160280250, Lot # A0229576). A 4 wt % NAC solution in water was prepared at a pH of 4. A 4 wt % NAC solution in water was prepared at a pH of 6. […] These solutions were then serially diluted as necessary to obtain the required concentrations. […]

Data set [5] shares this test system. The data set can be described thus: pH experiments: MIC at adjusted pH, NCCLS micro-dilution. In kind it is cell-based. The conditions noted are these: S. aureus. How it is done: as §2
Another data set relates to blood coagulation. The conditions noted are these: patients; cited publications; cited from earlier work.
Data set [6] concerns Staphylococcus aureus (organism # 25923). The data set can be described thus: MIC test, NCCLS micro-dilution. In kind it is cell-based. The settings on record: S. aureus; pH not adjusted (pH < 4); listed as VC. How it is done:
(§3) The minimum concentration of a composition required to inhibit growth is known as the minimum inhibitory concentration (MIC). In order to determine MIC a National Committee on Clinical Laboratory Standards (NCCLS) micro-dilution procedure was followed. […] In the current protocol 100 μL of MHB was mixed with 90 μL of formulation and 10 μL of log 8 organism or the highest achievable concentration. The concentration of the formulation was adjusted to obtain the required concentration in the final solution. The mixture was incubated at 37 degree C. for 16-24 hrs. After 16-24 hours the absorbance value was read at 600 nm. The obtained data was corrected by subtracting the appropriate blanks. Finally, the wells having an absorbance≧0.1 were marked + and <0.1 were marked −. The + symbol indicated growth while − symbol indicates no growth. […] In cases where the positive growth controls corrected absorbance is lower than 0.5, an alternate rule is utilized which is “absorbance<than 20% of positive growth control is marked as − growth, while absorbance≧than 20% of positive growth control is marked as + growth”. Staphylococcus aureus (organism # 25923), Pseudomonas aeruginosa (Organism # 27853) and Candida Albicans (Organism # 10231) was obtained from ATCC. […] N-acetyl cysteine (NAC) was used (Acros, Catalogue # 160280250, Lot # A0229576). A 8 wt % NAC solution in water was prepared. […]

Data set [7] has as its system Candida Albicans (Organism # 10231). Briefly: MIC test, NCCLS micro-dilution. Type of data set: cell-based. The settings on record: C. albicans; pH not adjusted. How it is done: as §3
[8] abbreviates: pH of 6, 2.0 wt % starting point.
[9] abbreviates: pH=6, 2.0% (w/v) starting point.

On to `CC(=O)N[C@@H](CS)C(=O)O` [NAC, N-acetyl-L-cysteine], for which the “MIC-NAC / MIC-VC (MIC of the component in combination with the other)” value in the data set on S. aureus (S. aureus in MHB) and in the data set with P. aeruginosa (P. aeruginosa in MHB) was 0.25 % (w/v) each time. Further, the “FIC of the single component (FIC-NAC, FIC-VC)” value in the data set on S. aureus stood at 0.4; in the data set on P. aeruginosa it was 0.35. Moreover, in data set [1], the “dose shown to be safe for administration to humans” value is listed as 1200 mg/day. Further, the osmolarity in the data set “Osmolarity of solutions” is 237 mOsm/Kg. Also, in data set [2], the “Change of INR with increase in concentration” value is reported as “increase in INR”. The “Solubility in chloroform and ether” value in data set [3] is “practically insoluble”. In addition, the MBC in data set [4] (pH of 4) was 2.0 wt %; in data set [4] (pH=4) it was 2.0 % (w/v). Also, the MIC in data set [5] (pH of 4) is 2.0 wt % and 2 wt %; in [5] (setting [8]) it was more than 2 wt %; in data set [5] (pH=4) it was 2.0 % (w/v); in data set [5] (setting [9]), > 2.0 % (w/v). In addition, the “Anti-coagulant effect (literature)” value with blood coagulation was “some anti-coagulant effect”.
`O=C1O[C@H]([C@@H](O)CO)C(O)=C1O` [Vitamin C, L-ascorbic acid]: the MIC is 0.25 wt % in data set [6]; more than 8 wt % in data set [7]; 0.5 wt % in [5] (pH of 4); more than 2.0 wt % in data set [5] (setting [8]); more than 2 wt % in data set [5] (pH of 6, 2.0 wt % starting point, listed as VC); 0.5 % (w/v) in data set [5] (pH=4). For the same molecule, in data set [5] (setting [9]), the MIC is listed as > 2.0 % (w/v). For the same molecule, the “FIC of the single component (FIC-NAC, FIC-VC)” value was 0.4 in the data set with S. aureus and 0.35 in the data set on P. aeruginosa. The molecule also came in with an osmolarity in the data set “Osmolarity of solutions” of 223 mOsm/Kg. In addition, the “Change of INR with increase in concentration” value in data set [2] was “no significant increase in INR”. The MBC is listed as 1.0 wt % in data set [4] (pH of 4) and 1.0 % (w/v) in data set [4] (pH=4). Moreover, in the data set with blood coagulation, the “Anti-coagulant effect (literature)” value is listed as “has not been identified as an effective anticoagulant when compared with heparin”.
